Test results reported in PubChem BioAssay AID330 (DTP/NCI, 2004).
Values joined by “and” are separate entries in the source; they are usually repeats but may differ in a detail not shown here. Identical values can stand only once. Inconclusive results and toxic doses are left out. The calls were made as follows: active = survival T/C of 150% or more; inactive = T/C below 125% in these data. Peptide text beside a SMILES is read from it.

Tested on: P388 leukemia ip, CD2F1 mice, survival T/C
Assay: NCI In Vivo Anticancer Drug Screen. Data for tumor model P388 Leukemia (intraperitoneal) in CD2F1 (CDF1) mice
Settings: endpoint: median survival time, higher = longer survival
Procedure, shortened: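 Mice carrying the transplanted tumor received test compound or vehicle. Survival was recorded in each group, and the value is the treated-group measurement divided by that of the vehicle-treated control group.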

[1] = dose: 60.0 mg/kg/injection, schedule: Q01DX005 (ip), vehicle: saline with Tween-80
[2] = dose: 120.0 mg/kg/injection, schedule: Q01DX005 (ip), vehicle: saline with Tween-80
[3] = dose: 240.0 mg/kg/injection, schedule: Q01DX005 (ip), vehicle: saline with Tween-80
[4] = dose: 6.25 mg/kg/injection, schedule: Q01DX009 (ip), vehicle: saline with Tween-80
[5] = dose: 12.5 mg/kg/injection, schedule: Q01DX009 (ip), vehicle: saline with Tween-80
[6] = dose: 25.0 mg/kg/injection, schedule: Q01DX009 (ip), vehicle: saline with Tween-80
[7] = dose: 50.0 mg/kg/injection, schedule: Q01DX009 (ip), vehicle: saline with Tween-80
[8] = dose: 100.0 mg/kg/injection, schedule: Q01DX009 (ip), vehicle: saline with Tween-80
[9] = dose: 200.0 mg/kg/injection, schedule: Q01DX009 (ip), vehicle: saline with Tween-80
[10] = dose: 60.0 mg/kg/injection, schedule: Q01DX005 (ip), vehicle: Klucel (hydroxypropylcellulose) (HPC)
[11] = dose: 120.0 mg/kg/injection, schedule: Q01DX005 (ip), vehicle: Klucel (hydroxypropylcellulose) (HPC)
[12] = dose: 50.0 mg/kg/injection, schedule: Q01DX005 (ip), vehicle: saline
[13] = dose: 25.0 mg/kg/injection, schedule: Q01DX009 (ip), vehicle: water
[14] = dose: 50.0 mg/kg/injection, schedule: Q01DX009 (ip), vehicle: water
[15] = dose: 100.0 mg/kg/injection, schedule: Q01DX009 (ip), vehicle: water
[16] = dose: 200.0 mg/kg/injection, schedule: Q01DX009 (ip), vehicle: water
[17] = dose: 100.0 mg/kg/injection, schedule: Q01DX005 (ip), vehicle: saline with Tween-80
[18] = dose: 200.0 mg/kg/injection, schedule: Q01DX005 (ip), vehicle: saline with Tween-80

Measured: T/C

COC(=O)C(Cc1ccccc1)NC(=O)C(C)NC(=O)c1ccc(OC)cc1 (configuration not stated)
inactive: dose: 100.0 mg/kg/injection, schedule: Q01DX001 (ip), vehicle: saline with Tween-80 100 % of control | dose: 200.0 mg/kg/injection, schedule: Q01DX001 (ip), vehicle: saline with Tween-80 100 % of control | dose: 400.0 mg/kg/injection, schedule: Q01DX001 (ip), vehicle: saline with Tween-80 93 % of control

CCOC(=O)N(O)c1ccc(C)cc1
inactive: dose: 100.0 mg/kg/injection, schedule: Q04DX002 (ip), vehicle: saline with Tween-80 109 % of control | dose: 200.0 mg/kg/injection, schedule: Q04DX002 (ip), vehicle: saline with Tween-80 112 % of control | dose: 400.0 mg/kg/injection, schedule: Q04DX002 (ip), vehicle: saline with Tween-80 124 % of control

O=C(CCC(=O)C1CCCC1=O)Nc1cccc([N+](=O)[O-])c1 (configuration not stated)
inactive: [1] 102 % of control | [2] 102 % of control | [3] 101 % of control

Nc1cc(=O)[nH]c(N)n1
inactive: [4] 106 % of control | [5] 106 % of control | [6] 106 % of control | [7] 104 % of control and 108 % of control | [8] 107 % of control | [9] 104 % of control

O=C(O)CCCCOC(C[N+](=O)[O-])C(Cl)(Cl)Cl (configuration not stated)
inactive: [7] 100 % of control | [8] 95 % of control | [9] 99 % of control

Brc1ccc2c(ccc3nc4nnnn4nc32)c1
inactive: [10] 94 % of control | [11] 90 % of control | dose: 240.0 mg/kg/injection, schedule: Q01DX005 (ip), vehicle: Klucel (hydroxypropylcellulose) (HPC) 86 % of control

CCCCN(CCCC)CC(O)c1c(C)c2ccccc2c2ccccc12 (configuration not stated)
inactive: dose: 9.0 mg/kg/injection, schedule: Q01DX009 (ip), vehicle: saline with Tween-80 100 % of control | dose: 18.0 mg/kg/injection, schedule: Q01DX009 (ip), vehicle: saline with Tween-80 100 % of control | dose: 36.0 mg/kg/injection, schedule: Q01DX009 (ip), vehicle: saline with Tween-80 100 % of control

COC(=O)C(C#N)=C(SC)SC
inactive: [5] 112 % of control | [6] 116 % of control | [7] 103 % of control and 91 % of control

COC(=O)C1=CN(c2ccccc2)C(=O)C1
inactive: dose: 100.0 mg/kg/injection, schedule: Q04DX003 (ip), vehicle: Klucel (hydroxypropylcellulose) (HPC) 118 % of control | dose: 200.0 mg/kg/injection, schedule: Q04DX003 (ip), vehicle: Klucel (hydroxypropylcellulose) (HPC) 114 % of control | dose: 400.0 mg/kg/injection, schedule: Q04DX003 (ip), vehicle: Klucel (hydroxypropylcellulose) (HPC) 108 % of control

C=CS(=O)(=O)c1cccc(N2C(=O)c3cc(S(=O)(=O)O)cc4c(N)c(S(=O)(=O)O)cc(c34)C2=O)c1
inactive: [12] 107 % of control | dose: 100.0 mg/kg/injection, schedule: Q01DX005 (ip), vehicle: saline 107 % of control | dose: 200.0 mg/kg/injection, schedule: Q01DX005 (ip), vehicle: saline 100 % of control

CCN=NNc1ccc(C)cc1
inactive: [6] 110 % of control

CC1(C)CN(c2ccccc2)N(CN2CCOCC2)C1=O
inactive: dose: 3.12 mg/kg/injection, schedule: Q01DX009 (ip), vehicle: Klucel (hydroxypropylcellulose) (HPC) 103 % of control | dose: 6.25 mg/kg/injection, schedule: Q01DX009 (ip), vehicle: Klucel (hydroxypropylcellulose) (HPC) 97 % of control | dose: 12.5 mg/kg/injection, schedule: Q01DX009 (ip), vehicle: Klucel (hydroxypropylcellulose) (HPC) 104 % of control

CC(=O)NC(CCO)C(N)=O (configuration not stated)
inactive: dose: 12.5 mg/kg/injection, schedule: Q01DX009 (ip), vehicle: water 99 % of control and 100 % of control | [13] 106 % of control | [14] 107 % of control and 120 % of control | [15] 111 % of control and 94 % of control | [16] 100 % of control and 101 % of control

O=c1oc2ccccc2c2c1C(c1ccc3c(c1)OCO3)C=C(c1ccc3c(c1)OCO3)O2 (configuration not stated)
inactive: [13] 94 % of control | [14] 94 % of control | [15] 94 % of control | [16] 92 % of control

CC(C)C(NC(=O)C(N)CCC(=O)O)C(=O)O (stereo not drawn) (H-Glu-Val-OH; configuration not given here)
inactive: dose: 50.0 mg/kg/injection, schedule: Q01DX005 (ip), vehicle: saline with Tween-80 93 % of control | [17] 100 % of control | [18] 93 % of control

O=C1C2C3C=CC(O3)C2C(=O)N1CCN1CCCCC1 (configuration not stated)
inactive: dose: 50.0 mg/kg/injection, schedule: Q01DX005 (ip), vehicle: other 97 % of control | dose: 100.0 mg/kg/injection, schedule: Q01DX005 (ip), vehicle: other 91 % of control

Cc1ccc(S(=O)(=O)C23C(N=NC2(C)C)C3(C)C)cc1 (configuration not stated)
inactive: dose: 50.0 mg/kg/injection, schedule: Q01DX005 (ip), vehicle: Klucel (hydroxypropylcellulose) (HPC) 103 % of control | dose: 100.0 mg/kg/injection, schedule: Q01DX005 (ip), vehicle: Klucel (hydroxypropylcellulose) (HPC) 103 % of control | dose: 200.0 mg/kg/injection, schedule: Q01DX005 (ip), vehicle: Klucel (hydroxypropylcellulose) (HPC) 100 % of control

CCOc1ccc(-c2nc(Cl)nc(Cl)n2)c2ccccc12
inactive: [10] 104 % of control | [11] 111 % of control

CCCC(CCC)=NNC(=S)SC
inactive: [5] 95 % of control | [6] 95 % of control | [7] 106 % of control and 95 % of control

C/C=C/c1nn(-c2ccccc2)c2c1C(=O)CC(C)O2 (configuration not stated)
inactive: [1] 96 % of control | [2] 95 % of control | [3] 96 % of control

O=c1[nH][nH]c(=O)c2[nH]cnc12
inactive: dose: 50.0 mg/kg/injection, schedule: Q04DX003 (ip), vehicle: saline with Tween-80 98 % of control | dose: 100.0 mg/kg/injection, schedule: Q04DX003 (ip), vehicle: saline with Tween-80 100 % of control | dose: 200.0 mg/kg/injection, schedule: Q04DX003 (ip), vehicle: saline with Tween-80 100 % of control | dose: 400.0 mg/kg/injection, schedule: Q04DX003 (ip), vehicle: saline with Tween-80 106 % of control

CCN(CCO)CC1CCCC2CCCCC21 (configuration not stated)
inactive: dose: 60.0 mg/kg/injection, schedule: Q01DX005 (ip), vehicle: saline 92 % of control | dose: 120.0 mg/kg/injection, schedule: Q01DX005 (ip), vehicle: saline 98 % of control

[Cl][Mn][Cl].[NH-]NP(=S)(N[NH-])Oc1ccccc1.[NH-]NP(=S)(N[NH-])Oc1ccccc1
inactive: dose: 12.5 mg/kg/injection, schedule: Q01DX005 (ip), vehicle: saline 99 % of control | dose: 25.0 mg/kg/injection, schedule: Q01DX005 (ip), vehicle: saline 100 % of control | [12] 108 % of control

S=C(N/N=C/c1ccc(Cl)cc1)Nc1ccccc1
inactive: dose: 100.0 mg/kg/injection, schedule: Q01DX009 (ip), vehicle: Klucel (hydroxypropylcellulose) (HPC) 101 % of control | dose: 200.0 mg/kg/injection, schedule: Q01DX009 (ip), vehicle: Klucel (hydroxypropylcellulose) (HPC) 100 % of control | dose: 400.0 mg/kg/injection, schedule: Q01DX009 (ip), vehicle: Klucel (hydroxypropylcellulose) (HPC) 93 % of control

CCCC(=O)N(C)O
inactive: [17] 108 % of control | [18] 103 % of control

BrCCC1CO1 (configuration not stated)
inactive: dose: 50.0 mg/kg/injection, schedule: Q01DX009 (ip), vehicle: saline 98 % of control | dose: 100.0 mg/kg/injection, schedule: Q01DX009 (ip), vehicle: saline 100 % of control | dose: 200.0 mg/kg/injection, schedule: Q01DX009 (ip), vehicle: saline 117 % of control

Cc1ccc(C)n1-c1ccsc1C(=O)NNC(=O)C(Cl)(Cl)Cl
inactive: dose: 7.5 mg/kg/injection, schedule: Q01DX005 (ip), vehicle: Klucel (hydroxypropylcellulose) (HPC) 102 % of control | dose: 15.0 mg/kg/injection, schedule: Q01DX005 (ip), vehicle: Klucel (hydroxypropylcellulose) (HPC) 101 % of control | dose: 30.0 mg/kg/injection, schedule: Q01DX005 (ip), vehicle: Klucel (hydroxypropylcellulose) (HPC) 111 % of control

CCCCCCC(=O)/C=C/c1ccc(OC(=O)c2ccc(OC)cc2)cc1
inactive: [4] 100 % of control | [5] 105 % of control | [6] 98 % of control | [7] 91 % of control | [8] 89 % of control
